# Where “and” joins values, the source holds several entries; their conditions need not be identical. Equal entries are not always repeated. Where two headings read alike, the source gives them in different places.
# How the values were obtained:
# Neospora caninum [1] = experiment: Testing substances on infected Neospora caninum cell cultures (VERO cell monolayer, microscopical assessment); format: cell-based; parameters: key: 0 = no effect; 1 = some effect; 2 = full action; T = cytotoxic; conditions: 4 days after beginning of treatment, 5 days post-infection
# Method: Neospora caninum is an obligatory intracellular parasite. VERO cells (African green monkey kidney cells, ATCC No.: CCL 81 Vero) were used as an aid to cause the parasite to reproduce under conditions capable of standardization and definition. Vero cells were grown in the following medium: 87% […] (ICN, 12-602-54) 10% FCS (fetal calf serum, ICN, 29-101-49) 1% 200 mM L-glutamine (ICN, 15-801-13) 1% sodium bicarbonate (ICN, 16-883-49) 1% penicillin/streptomycin (ICN, 16-700-49). Noninfected cultures were maintained and passaged in 25 cm^2 (Falcon, B 769031) and 75 cm^2 (Falcon, B 769051) tissue culture flasks. Vero cells were grown at 37° C. in a 5% CO2 atmosphere in a CO2 incubator (Heraeus) until a cell monolayer was obtained.
# The following Neospora caninum isolates were used for the infection of cell cultures: NC-1 (canine isolate DUBEY (1988) and NC Swe B-1/9th passage (bovine isolate; National Veterinary Institute Uppsala, Sweden). The infection materials used were infected cell cultures from the nitrogen storage (see above) or purified tachyzoites of infected cultures (see below).
# Neospora caninum was isolated from infected VERO or ED monolayers under sterile conditions. First, infected cell cultures were detached from the flask bottom using a spatula (Tec No Mara, 3010) and, using a 23-gauge cannula (Luer 23 Gx1, 0.6×25 mm) drawn into a 10 ml disposable syringe. During this procedure, host cells and tissue cysts contained therein were destroyed mechanically. The cell suspension was subsequently centrifuged for 7 minutes at 1 500 rpm (Varifuge 3.0, Heraeus), the supernatant was discarded, and the sample pellet was resuspended in precisely 2.5 ml of physiological phosphate buffer (PBS: 1 mM PO4, 12 mM NaCl, 0.87 mM KCL, pH 7.4). The next isolation step was performed using a Sephadex column (PD-10™/Sephadex G-25 M, Pharmacia Biotech, 17-0851). The column was first equilibrated with 25 ml of PBS, the sample volume was applied in 2.5 ml of PBS, and elution was then effected with 5 ml of PBS. […]
# Neospora caninum [2] = experiment: Anti-N. caninum total IgG in the serum by ELISA, prophylactically treated infected mice; format: in vivo
# Method: (§1) Female Wt C57BL/6-mice, age at the time of treatment: 7½ weeks.
# (§2) Neospora caninum tachyzoites were passaged through VERO cells, and isolated by column chromatography, and aliquots with concentrations of 2×10^6 parasites/100 μl were prepared in sterile PBS.
# (§3) Pure toltrazuril active compound was made up as a stock solution with 50 mg/10 ml H2O+100 μl Cremophor. 0.5 mg of pure active compound were present Der application in 0.1 ml of this solution. In a mouse of 20 g, this corresponds to a use concentration of 25 mg/kg. The substances were administered perorally by gavage on 6 successive days, which corresponds to a total uptake of […].
# (§4) Toltrazuril 2.5% formulated solution (100 ml solution contain: 2.50 g toltrazuril, 30.00 g triethanolamine, 80.70 g polyethylene glycol; the components are simply mixed): 6.25 ml of the 2.5% solution were diluted in 250 ml of water and administered to the mice on 6 successive days via the drinking water.
# (§5) Four hours after the start of the prophylactic treatment, each mouse was infected with 2×10^6 parasite stages/100 μl sterile PBS.
# (§6) 14 days post-infection, the test mice were sacrificed using CO2. They were numbered randomly to maintain a random sequence during evaluation (blind evaluation). To obtain serum, blood was taken from the myocardium. The brain was dissected carefully, and one half was stored at −80° C. for the PCR analysis. The remainder was fixed in 4% paraformaldehyde/PBS for immunohistological studies (IFAT).
# Anti-N. caninum total immunoglobulin G (IgG) was determined by ELISA following the method of Eperon et al., 1999, Parasite Immunology 21:225-236. Treated groups were compared with an uninfected and an infected control group. The positive control mouse was inoculated with a crude extract of N. caninum tachyzoites and subsequently infected with 10^6 N. caninum stages. The parasite-specific IgG values were particularly high in this mouse.
# Neospora caninum [3] = experiment: Neospora caninum-specific PCR on brain DNA of infected mice; format: in vivo; conditions: prophylactic treatment, pure active compound 25 mg/kg/day p.o.
# Method: as §1, §2, §3, §4, §5
# as §6, with “The remainder was fixed in 4% paraformaldehyde/PBS for immunohistological studies (IFAT).” left out
# Neospora caninum [4] = experiment: Immunofluorescence test (IFAT) on brain sections of infected mice; format: in vivo; parameters: key: Score (−)=no tachyzoites; Score (+)=less than 10 tachyzoites; Score (++)=between 10 and 200 tachyzoites; Score (+++)=more than 200 parasites; conditions: brain sections of individual mice; 25 mg/kg/day p.o. on 6 successive days; day 14 p.i.
# Method: as §1, §2, §3, §4, §5
# 14 days post-infection, the test mice were sacrificed using CO2. They were numbered randomly to maintain a random sequence during evaluation (blind evaluation). […]
# The entire sections were studied for the assessment. Any stages of the parasite present were counted, and the following scores were used: […]
# Neospora caninum [5] = conditions: dogs; treatment with sulfadiazine and clindamycin together; cited from earlier work
# Neospora caninum [6] = conditions: experimentally infected mice, administered via the drinking water, cited from earlier work
SMILES,Efficacy against Neospora caninum in VERO cells (assessment of monolayer) (Neospora caninum [1]; 10 ppm),Efficacy against Neospora caninum in VERO cells (assessment of monolayer) (Neospora caninum [1]; 25 ppm),Efficacy against Neospora caninum in VERO cells (assessment of monolayer) (Neospora caninum [1]; 50 ppm),"OD mean (anti Neospora IgG in the serum) (Neospora caninum [2]; group mean, 7 mice, 25 mg/kg/day p.o. on 6 successive days, day 14 p.i.)","OD (anti Neospora IgG in the serum) (Neospora caninum [2]; individual C57BL/6 mice, 25 mg/kg/day p.o. on 6 successive days from 4 h before infection, day 14 p.i., 25 mg/kg/day)","concentration of Neospora caninum-specific IgG antibodies compared with infected and untreated control groups (Neospora caninum [2]; mice, pure active compound 25 mg/kg/day p.o.)",mice PCR-negative in the group (Neospora caninum [3]),IFAT (Neospora caninum [4]),success of treatment (Neospora caninum [5]),effectiveness of treatment (Neospora caninum [6]; later start of the treatment),"effectiveness of treatment (Neospora caninum [6]; start prior to infection, clinical symptoms prevented without parasitological recovery)"
"Cc1cc(-n2c(=O)[nH]c(=O)n(C)c2=O)ccc1Oc1ccc(SC(F)(F)F)cc1 [Toltrazuril, toltrazuril]",1,2,2,0.1689,0.338 and 0.271 and 0.056 and 0.066 and 0.18 and 0.103 and 0.168,reduced concentration,4/7,−,,,
Nc1ccc(S(=O)(=O)Nc2ncccn2)cc1 [sulfadiazine],,,,,,,,,only has a chance of success when it starts very early,without success,only effective when the treatment was started prophylactically

# Reference: patent US9399037B2, “Triazinone compounds for treating diseases resulting from infestation with parasitic protozoans” (Bayer Intellectual Property GmbH, priority 1999, dated 2016)
